Values of other authors as cited in paper PMC7435928, “Preclinical Evaluation of NHS-Activated Gold Nanoparticles Functionalized with Bombesin or Neurotensin-Like Peptides for Targeting Colon and Prostate Tumours” (Molecules, 2020).

Target: bombesin BBRS1, BBRS2 and BBRS3 receptors
Design: method as in printed for the value
Settings: target receptors BBRS1, BBRS2; not measured in this paper, ref not given; cited from earlier work

COc1ccc(C2(CNC(=O)[C@](C)(Cc3c[nH]c4ccccc34)NC(=O)Nc3ccc([N+](=O)[O-])cc3)CCCCC2)nc1 [PD 176252]
Kd: 1 nM
